Each structure is given as a SMILES string.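 Interpolation was linear, between the two tested concentrations surrounding the appropriate level; five concentrations were tested over 48 hours in 96-well plates. Here, GI50 denotes the concentration required for 50% inhibition of growth.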 Calls of active or inactive are those of the source. No stated cut-off is given here; in the data, active = GI50 up to about 1.1 µM and inactive = higher.

What all share (assay): NCI tumour cell line growth inhibition, 48 h
The test system of assay [1] is M14.
Assay [2] relates to MOLT-4.
The test system of assay [3] is SK-MEL-5.
Assay [4] concerns OVCAR-8.
The subject of assay [5] is HOP-92.
Assay [6] deals with HCC 2998.
For assay [7], the system named is K562.
In assay [8] the test system is KM12.
The test system of assay [9] is SK-MEL-28.
Assay [10] concerns SNB-19.
The subject of assay [11] is U-251.
For assay [12], the system named is UACC-62.
In assay [13] the test system is HCT-15.
In assay [14] the test system is PC-3.
Assay [15] deals with LOX IMVI.
Assay [16] concerns OVCAR-3.
The subject of assay [17] is NCI-H226.
For assay [18], the system named is SNB-75.
The test system of assay [19] is A549.
Assay [20] has as its system HL-60.

With `COc1ccc2c(-c3ccc(OCCN(C)C)cc3)c(Oc3ccc(Cl)cc3)c(=O)oc2c1`, the GI50 in assay [1] is 1.74 µM (inactive); in assay [2], 2.13 µM (inactive); in [3], 1.64 µM (inactive); in assay [4], 8.36 µM (inactive); in assay [5], 5.5 µM (inactive); in assay [6], 2.83 µM (inactive). The GI50 is 2.54 µM (inactive) in assay [7]; 3.66 µM (inactive) in [8]; 1.82 µM (inactive) in assay [9]; 8.02 µM (inactive) in assay [10]; 3.4 µM (inactive) in [11]; 2.75 µM (inactive) in [12]. Moreover, the GI50 in [13] was 3.35 µM; in assay [14], 4.98 µM (inactive); in assay [15] it was 2.19 µM (inactive); in [16], 6.17 µM (inactive); in assay [17], 23.9 µM (inactive); in [18], 7.19 µM (inactive). For the same compound, the GI50 in assay [19] is 4.48 µM (inactive).

In the case of `O=C(c1cccs1)N(C(=O)N1CCN(c2ccccc2)CC1)S(=O)(=O)c1ccccc1`, the GI50 is 17.7 µM (inactive) in assay [1]; 20.2 µM (inactive) in [2]; 17 µM (inactive) in assay [3]; 18.6 µM (inactive) in [4]; 22.9 µM (inactive) in [5]; 40.1 µM (inactive) in assay [6]. Also, the GI50 in assay [7] was 25.1 µM (inactive); in assay [8], 31.4 µM (inactive); in assay [9] it was 22.4 µM (inactive); in assay [10], 27 µM (inactive); in assay [11] it was 17.5 µM (inactive); in assay [12], 17.6 µM (inactive). For the same compound, the GI50 in assay [13] was 28.5 µM; in assay [14], 29 µM (inactive); in [20], 19.4 µM (inactive); in assay [16], 32.2 µM (inactive); in assay [17], 19.8 µM (inactive); in assay [18] it was 14.2 µM (inactive). For the same compound, the GI50 in assay [19] was 32.8 µM (inactive).

`O=C1CSC(c2c[nH]c3ccccc23)N1c1ccc(Cl)cc1Cl` (stereo unspecified): the GI50 in assay [1], in [2], in assay [3], in assay [4], in assay [5] and in assay [6] was > 100 µM (inactive) each time. Also, the GI50 in [7], in assay [8], in assay [9], in assay [10], in assay [11] and in assay [12] was > 100 µM (inactive) each time. The GI50 in assay [13] is over 100 µM; in assay [14], > 100 µM (inactive); in assay [15] it was > 100 µM (inactive); in [20], > 100 µM (inactive); in [16], > 100 µM (inactive); in assay [18], 0.865 µM (active). In [19], the GI50 was > 100 µM (inactive).

Regarding `CC(C)(CC(=O)Nc1ccccc1)C(=O)O`, the GI50 in assay [1], in assay [2], in assay [3], in assay [4], in [5] and in [7] was > 100 µM (inactive) each time. Also, the GI50 was > 100 µM (inactive) in assay [8]; > 100 µM (inactive) in assay [9]; > 100 µM (inactive) in [10]; > 100 µM (inactive) in [11]; > 100 µM (inactive) in assay [12]; over 100 µM in assay [13]. Besides, the GI50 in assay [14], in [15], in assay [20], in assay [16], in assay [17] and in assay [19] was > 100 µM (inactive) in each case.

For the compound `N#C[BH2-][n+]1cn(C2CC(O)C(COP(=O)(O)OC3CC(n4c[n+]([BH2-]C#N)c5c(=O)[nH]c(N)nc54)OC3CO)O2)c2nc(N)[nH]c(=O)c21` (stereo unspecified), the GI50 in assay [1], in assay [2], in [3], in [4], in assay [5] and in [6] was > 100 µM (inactive) in each case. The GI50 in assay [7] was 10 µM (inactive); in [8] it was > 100 µM (inactive); in [9], > 100 µM (inactive); in assay [10], > 100 µM (inactive); in assay [11] it was > 100 µM (inactive); in assay [12], > 100 µM (inactive). The GI50 is over 100 µM in assay [13]; > 100 µM (inactive) in assay [14]; > 100 µM (inactive) in assay [20]; > 100 µM (inactive) in [16]; > 100 µM (inactive) in assay [17]; > 100 µM (inactive) in assay [18]. Further, the GI50 in [19] was > 100 µM (inactive).

For the compound `COc1cc2c3c(c1O)-c1c(ccc(OC)c1OC)CC3N(C)CC2` (stereo unspecified), the GI50 in assay [1], in [2], in assay [3], in [4], in assay [5] and in [8] was > 100 µM (inactive) throughout. In addition, the GI50 in assay [10] is > 100 µM (inactive); in assay [11], > 100 µM (inactive); in assay [12], > 100 µM (inactive); in assay [13] it was over 100 µM; in assay [14], > 100 µM (inactive); in assay [15], > 100 µM (inactive). For the same compound, the GI50 was 40.9 µM (inactive) in assay [20]; > 100 µM (inactive) in assay [16]; > 100 µM (inactive) in assay [17]; > 100 µM (inactive) in assay [18]; > 100 µM (inactive) in [19].

For `Nc1cc(CO)cc(Nc2c3ccccc3nc3occc23)c1`, the GI50 was 33.6 µM (inactive) in assay [1]; 13.7 µM (inactive) in [2]; 23.1 µM (inactive) in [3]; 35.7 µM (inactive) in assay [4]; 29.1 µM (inactive) in [5]; 31.3 µM (inactive) in assay [6]. Moreover, the GI50 in assay [8] was 33.8 µM (inactive); in [9], 36.4 µM (inactive); in assay [10], > 100 µM (inactive); in assay [11], 45.9 µM (inactive); in assay [12], 20.8 µM (inactive); in assay [13] it was 25.6 µM. In addition, the GI50 in [14] is 64 µM (inactive); in [15] it was 36.6 µM (inactive); in [20], 22.8 µM (inactive); in assay [16], 72.4 µM (inactive); in assay [17] it was 29.1 µM (inactive); in assay [19] it was 40.4 µM (inactive).

With `OCC(O)COCn1cc(Cn2ncc3c(NCc4ccccc4)ncnc32)nn1` (stereo unspecified), the GI50 in assay [1], in assay [2], in assay [3], in [4], in assay [5] and in [6] was > 100 µM (inactive) in each case. The GI50 in [8] is > 100 µM (inactive); in [9] it was > 100 µM (inactive); in [10] it was > 100 µM (inactive); in assay [11], > 100 µM (inactive); in assay [12] it was > 100 µM (inactive); in assay [13], over 100 µM. Moreover, the GI50 in assay [14], in assay [15], in assay [20], in assay [16], in assay [17] and in assay [19] was > 100 µM (inactive) each time.

On to `CON(C)C(=O)C1CCCO1` (stereo unspecified), for which the GI50 in assay [1] is > 100 µM (inactive); in assay [2] it was > 100 µM (inactive); in assay [3], 67 µM (inactive); in assay [4], > 100 µM (inactive); in [5], > 100 µM (inactive); in assay [7], > 100 µM (inactive). In addition, the GI50 was > 100 µM (inactive) in assay [8]; > 100 µM (inactive) in assay [9]; > 100 µM (inactive) in [10]; > 100 µM (inactive) in [11]; > 100 µM (inactive) in assay [12]; over 100 µM in assay [13]. The GI50 in assay [14] is > 100 µM (inactive); in [15] it was > 100 µM (inactive); in assay [20], 34.5 µM (inactive); in assay [16], > 100 µM (inactive); in assay [17], > 100 µM (inactive); in assay [18] it was > 100 µM (inactive). In addition, in [19], the GI50 was > 100 µM (inactive).

In the case of `CC1=CC(=O)C2=C(C)CCC3C(C)C(=O)OC3C12` (stereo unspecified), the GI50 in assay [1], in assay [2], in assay [3], in [4], in assay [5] and in [6] was > 100 µM (inactive) in each case. In addition, the GI50 in [8] was > 100 µM (inactive); in [9], > 100 µM (inactive); in assay [10], > 100 µM (inactive); in [11] it was > 100 µM (inactive); in [12], > 100 µM (inactive); in assay [13] it was over 100 µM. Besides, the GI50 in assay [14], in assay [15], in assay [20], in assay [16], in assay [17] and in assay [19] was > 100 µM (inactive) throughout.

For `Cc1cccc2c1CC1(Cc3c(C)cccc3C1=O)C2=O`, the GI50 in assay [1], in assay [2], in assay [3], in assay [4], in [5] and in assay [6] was > 100 µM (inactive) throughout. For the same compound, the GI50 is > 100 µM (inactive) in assay [7]; > 100 µM (inactive) in assay [9]; > 100 µM (inactive) in [10]; > 100 µM (inactive) in [11]; over 100 µM in assay [13]; > 100 µM (inactive) in assay [14]. For the same compound, the GI50 in assay [15], in assay [20], in assay [16], in assay [18] and in assay [19] was > 100 µM (inactive) throughout.

These data come from ChEMBL document CHEMBL1201862, “PubChem BioAssay data set” (2004).
